What was measured:
[1] = biological target: Thymidylate synthase (Homo sapiens, UniProt P04818); experiment: Inhibition of human thymidylate synthetase at 37 degree C pH 7.4
[2] = Ratio of Vmax, rel to Km (FPGS substrate activity) for recombinant human FPGS; type: ADME
[3] = Vmax, rel (FPGS substrate activity) for recombinant human FPGS; type: ADME
[4] = tested on: HL-60; experiment: Cytotoxicity of compound aganist HL-60 leukemia cell line; type: functional; conditions: Homo sapiens
[5] = tested on: CCRF-CEM; experiment: Growth inhibitory activity against CCRF-CEM human lymphoblastic leukemia cells; type: functional, cell-based
[6] = tested on: 786-0; experiment: Cytotoxicity of compound against 786-0 renal cancer cell line; type: functional; conditions: Homo sapiens
[7] = biological target: T1, Dihydrofolate reductase (Homo sapiens, UniProt P00374)
T1 sequence (P00374 whole entry): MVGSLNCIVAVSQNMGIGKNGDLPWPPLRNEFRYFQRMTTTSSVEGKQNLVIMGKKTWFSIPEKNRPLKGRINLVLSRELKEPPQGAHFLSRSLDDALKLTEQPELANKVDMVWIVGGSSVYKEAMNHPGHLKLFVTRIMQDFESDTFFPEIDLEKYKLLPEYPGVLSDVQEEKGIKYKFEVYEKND
Description: Inhibition of human dihydrofolate reductase at 37 degree C pH 7.4

[8] = tested on: CCRF-CEM; experiment: Growth inhibitory activity against MTX resistant CCRF-CEM human lymphoblastic leukemia cells with decreased polyglutamylation; type: functional, cell-based
[9] = tested on: K562; experiment: Cytotoxicity of compound against […] leukemia cell line; type: functional; conditions: Homo sapiens
[10] = biological target: Thymidylate synthase (Escherichia coli, UniProt C3SWJ7); experiment: Inhibition of Escherichia coli thymidylate synthetase at 37 degree C pH 7.4
Chain of Thymidylate synthase (Escherichia coli, UniProt C3SWJ7) (C3SWJ7 whole entry): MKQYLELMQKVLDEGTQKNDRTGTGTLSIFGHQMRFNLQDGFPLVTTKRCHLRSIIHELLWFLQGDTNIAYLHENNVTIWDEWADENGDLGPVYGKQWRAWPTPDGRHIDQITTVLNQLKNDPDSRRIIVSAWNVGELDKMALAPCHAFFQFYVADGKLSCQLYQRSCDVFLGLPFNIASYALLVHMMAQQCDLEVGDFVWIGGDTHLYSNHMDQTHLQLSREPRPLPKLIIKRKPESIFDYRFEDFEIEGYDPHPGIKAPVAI

[11] = tested on: CCRF-CEM; experiment: Protection of CCRF-CEM human leukemia cells against the growth inhibitory effect of MTX by 10 uM of hypoxanthine and 5 uM of thymidine at 5000 nM concentration of compound; type: functional
[12] = tested on: CCRF-CEM; experiment: Growth inhibitory activity against MTX resistant subline of CCRF-CEM human lymphoblastic leukemia cells; type: functional, cell-based
[13] = tested on: SW-620; experiment: Cytotoxicity of compound against SW-620 colon cancer cell line; type: functional; conditions: Homo sapiens
[14] = tested on: CCRF-CEM; experiment: Protection of CCRF-CEM human leukemia cells against the growth inhibitory effect of MTX by 5 uM of thymidine at 5000 nM concentration of compound; type: functional
[15] = biological target: T2, Thymidylate synthase (Lactobacillus casei, UniProt P00469); experiment: Inhibition of Lactobacillus casei thymidylate synthetase at 37 degree C pH 7.4; set-up: species or system Lacticaseibacillus casei
T2 sequence (P00469 whole entry): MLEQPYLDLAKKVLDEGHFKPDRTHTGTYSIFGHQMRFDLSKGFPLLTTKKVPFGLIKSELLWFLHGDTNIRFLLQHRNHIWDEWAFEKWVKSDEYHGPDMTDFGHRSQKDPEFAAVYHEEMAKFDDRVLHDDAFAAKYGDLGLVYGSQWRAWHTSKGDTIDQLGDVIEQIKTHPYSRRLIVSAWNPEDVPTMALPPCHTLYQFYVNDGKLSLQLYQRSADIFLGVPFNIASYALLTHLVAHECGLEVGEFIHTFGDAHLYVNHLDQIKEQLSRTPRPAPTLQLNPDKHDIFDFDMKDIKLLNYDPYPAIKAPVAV

[16] = tested on: SR; experiment: Cytotoxicity of compound against SR leukemia cell line; type: functional; conditions: Homo sapiens
[17] = tested on: CCRF-CEM; experiment: Protection of CCRF-CEM human leukemia cells against the growth inhibitory effect of MTX by 10 uM of hypoxanthine at 5000 nM concentration of compound; type: functional
[18] = biological target: T3, Dihydrofolate reductase (Escherichia coli, UniProt P0ABQ4)
T3 sequence (P0ABQ4 whole entry): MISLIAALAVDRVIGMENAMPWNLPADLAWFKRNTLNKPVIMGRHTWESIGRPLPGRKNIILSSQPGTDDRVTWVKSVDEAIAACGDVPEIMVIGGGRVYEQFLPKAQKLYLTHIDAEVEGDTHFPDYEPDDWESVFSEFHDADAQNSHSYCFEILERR
Description: Inhibition of Escherichia coli dihydrofolate reductase at 37 degree C pH 7.4

[19] = tested on: CCRF-CEM; experiment: Growth inhibitory activity against resistant CCRF-CEM human lymphoblastic leukemia cells with decreased uptake of MTX; type: functional, cell-based
[20] = biological target: Dihydrofolate reductase (Lactobacillus casei, UniProt P00381)
Chain of Dihydrofolate reductase (Lactobacillus casei, UniProt P00381) (P00381 whole entry): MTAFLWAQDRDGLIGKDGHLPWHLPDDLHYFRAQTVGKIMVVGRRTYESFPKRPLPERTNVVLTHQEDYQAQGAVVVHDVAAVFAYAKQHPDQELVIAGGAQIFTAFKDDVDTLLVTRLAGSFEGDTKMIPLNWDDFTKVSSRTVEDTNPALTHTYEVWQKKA
Description: Inhibition of Lactobacillus casei dihydrofolate reductase at 37 degree C pH 7.4

Chain of Thymidylate synthase (Homo sapiens, UniProt P04818) (P04818 whole entry): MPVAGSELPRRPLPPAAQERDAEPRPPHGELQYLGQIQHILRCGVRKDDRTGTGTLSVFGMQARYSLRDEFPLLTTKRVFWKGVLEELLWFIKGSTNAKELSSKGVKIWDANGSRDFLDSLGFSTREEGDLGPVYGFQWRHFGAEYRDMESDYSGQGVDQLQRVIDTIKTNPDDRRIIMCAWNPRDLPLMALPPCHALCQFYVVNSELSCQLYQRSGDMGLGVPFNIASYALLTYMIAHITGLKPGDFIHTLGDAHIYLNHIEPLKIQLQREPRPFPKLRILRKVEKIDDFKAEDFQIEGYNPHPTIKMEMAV

SMILES | Ratio [2] | Vmax rel [3] | EC50 [5] | IC50 [7] | EC50 [8] | IC50 [1] | IC50 [10] | EC50 [12] | IC50 [15] | IC50 [18] | EC50 [19] | IC50 [20] | also measured
Nc1nc2[nH]cc(CCc3ccc(C(=O)N[C@@H](CCC(=O)O)C(=O)O)cc3)c2c(=O)[nH]1 [PEMETREXED] | – | – | – | – | – | – | – | – | – | – | – | – | Ki [1]: 0.34 µM
Nc1nc(N)c2c(CCc3ccc(C(=O)N[C@@H](CCC(=O)O)C(=O)O)cc3)coc2n1 | 0.07 | 0.65 | – | – | – | – | – | – | – | – | – | – | –
Nc1nc(N)c2nc(CNc3ccc(C(=O)N[C@@H](CCC(=O)O)C(=O)O)cc3)cnc2n1 [AMINOPTERIN] | 0.19 | 1 | – | – | – | – | – | – | – | – | – | – | –
Nc1nc2[nH]c(CCCCc3ccc(C(=O)N[C@@H](CCC(=O)O)C(=O)O)cc3)cc2c(=O)[nH]1 | 0.086 | 0.54 | 1.1 µM | > 20 µM | 18 µM | > 17 µM | > 170 µM | 3.05 µM | > 100 µM | 100 µM | 8.1 µM | > 110 µM | GI50 [4]: 6.56 µM; GI50 [6]: 0.898 µM; GI50 [9]: 0.398 µM; Relative growth [11]: 85%; GI50 [13]: 3.81 µM; Relative growth [14]: 18%; GI50 [16]: 0.609 µM; Relative growth [17]: 85%
Nc1nc(N)c2c(CCCCc3ccc(C(=O)N[C@@H](CCC(=O)O)C(=O)O)cc3)coc2n1 | 0.27 | 0.54 | 0.12 µM | 21 µM | 3.15 µM | > 18 µM | > 100 µM | 4.85 µM | > 100 µM | 21 µM | 0.265 µM | 10 µM | GI50 [4]: 0.0381 µM; GI50 [6]: > 100 µM; GI50 [9]: 0.214 µM; Relative growth [11]: 74%; GI50 [13]: 0.0783 µM; Relative growth [14]: 20%; GI50 [16]: 0.0478 µM; Relative growth [17]: 21%
Nc1nc(N)c2c(CCCc3ccc(C(=O)N[C@@H](CCC(=O)O)C(=O)O)cc3)coc2n1 | – | – | 0.06 µM | – | 0.084 µM | – | – | ≥ 4.6 µM | – | – | 1.05 µM | 10 µM | –
Nc1nc2[nH]c(CCCc3ccc(C(=O)N[C@@H](CCC(=O)O)C(=O)O)cc3)cc2c(=O)[nH]1 | 0.63 | 0.57 | 0.46 µM | > 24 µM | 0.47 µM | > 17 µM | > 180 µM | 0.86 µM | > 100 µM | 22 µM | 4.35 µM | > 110 µM | –
